# Experimental data from PubChem BioAssay (NCI).
#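 Values below derive from 48-hour exposures of cells grown in 96-well plates, with endpoints linearly interpolated between the two concentrations bracketing the appropriate inhibition level. GI50 is the concentration that inhibits growth by half. At the TGI there is no net growth.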
# Tests used:
# Assay in all cases: DTP human tumour cell line panel, 48 h
# 786-0 renal = test system: 786-0 renal
# A498 renal = test system: A498 renal
# A549 NSCLC = test system: A549 NSCLC
# ACHN renal = test system: ACHN renal
# BT-549 breast = test system: BT-549 breast
# CAKI-1 renal = test system: CAKI-1 renal
# CCRF-CEM leukemia = test system: CCRF-CEM leukemia
# COLO 205 colon = test system: COLO 205 colon
# DU-145 prostate = test system: DU-145 prostate
# EKVX NSCLC = test system: EKVX NSCLC
# HCC-2998 colon = test system: HCC-2998 colon
# HCT-116 colon = test system: HCT-116 colon
# HCT-15 colon = test system: HCT-15 colon
# HOP-62 NSCLC = test system: HOP-62 NSCLC
# HS 578T breast = test system: HS 578T breast
# HT29 colon = test system: HT29 colon
# IGROV1 ovarian = test system: IGROV1 ovarian
# K-562 leukemia = test system: K-562 leukemia
# KM12 colon = test system: KM12 colon
# LOX IMVI melanoma = test system: LOX IMVI melanoma
# M14 melanoma = test system: M14 melanoma
# MALME-3M melanoma = test system: MALME-3M melanoma
# MCF7 breast = test system: MCF7 breast
# MDA-MB-231 breast = test system: MDA-MB-231 breast
# MDA-MB-435 = test system: MDA-MB-435
# MOLT-4 leukemia = test system: MOLT-4 leukemia
# NCI-H226 lung = test system: NCI-H226 lung
# NCI-H23 lung = test system: NCI-H23 lung
# NCI-H460 lung = test system: NCI-H460 lung
# NCI-H522 lung = test system: NCI-H522 lung
# NCI/ADR-RES ovarian = test system: NCI/ADR-RES ovarian
# OVCAR-3 ovarian = test system: OVCAR-3 ovarian
# OVCAR-4 ovarian = test system: OVCAR-4 ovarian
# OVCAR-5 ovarian = test system: OVCAR-5 ovarian
# OVCAR-8 ovarian = test system: OVCAR-8 ovarian
# PC-3 prostate = test system: PC-3 prostate
# RPMI-8226 leukemia = test system: RPMI-8226 leukemia
# RXF 393 renal = test system: RXF 393 renal
# SF-268 CNS = test system: SF-268 CNS
# SF-295 CNS = test system: SF-295 CNS
# SF-539 CNS = test system: SF-539 CNS
# SK-MEL-2 melanoma = test system: SK-MEL-2 melanoma
# SK-MEL-28 melanoma = test system: SK-MEL-28 melanoma
# SK-MEL-5 melanoma = test system: SK-MEL-5 melanoma
# SK-OV-3 ovarian = test system: SK-OV-3 ovarian
# SN12C renal = test system: SN12C renal
# SNB-19 CNS = test system: SNB-19 CNS
# SNB-75 CNS = test system: SNB-75 CNS
# SW-620 colon = test system: SW-620 colon
# T-47D breast = test system: T-47D breast
# TK-10 renal = test system: TK-10 renal
# U251 CNS = test system: U251 CNS
# UACC-257 melanoma = test system: UACC-257 melanoma
# UACC-62 melanoma = test system: UACC-62 melanoma
# UO-31 renal = test system: UO-31 renal
structure (smiles),measurement,setting,value
C=C(CN(C)Cc1ccccc1)c1ccc(NC(=O)c2ccc(C(=C)CN(C)Cc3ccccc3)cc2)cc1,GI50,786-0 renal,25.6 µM
same,TGI,786-0 renal,65.4 µM
same,GI50,A498 renal,20.8 µM
same,TGI,A498 renal,48.9 µM
same,GI50,A549 NSCLC,77.8 µM
same,TGI,A549 NSCLC,> 100 µM
same,GI50,ACHN renal,66.6 µM
same,TGI,ACHN renal,> 100 µM
same,GI50,BT-549 breast,> 100 µM
same,TGI,BT-549 breast,> 100 µM
same,GI50,CAKI-1 renal,53 µM
same,TGI,CAKI-1 renal,> 100 µM
same,GI50,CCRF-CEM leukemia,> 100 µM
same,TGI,CCRF-CEM leukemia,> 100 µM
same,GI50,COLO 205 colon,> 100 µM
same,TGI,COLO 205 colon,> 100 µM
same,GI50,DU-145 prostate,71.6 µM
same,TGI,DU-145 prostate,> 100 µM
same,GI50,EKVX NSCLC,73.3 µM
same,TGI,EKVX NSCLC,> 100 µM
same,GI50,HCC-2998 colon,37.2 µM
same,TGI,HCC-2998 colon,> 100 µM
same,GI50,HCT-116 colon,31.7 µM
same,TGI,HCT-116 colon,> 100 µM
same,GI50,HCT-15 colon,76.5 µM
same,TGI,HCT-15 colon,> 100 µM
same,GI50,HOP-62 NSCLC,18.8 µM
same,TGI,HOP-62 NSCLC,36.9 µM
same,GI50,HS 578T breast,40 µM
same,TGI,HS 578T breast,> 100 µM
same,GI50,HT29 colon,> 100 µM
same,TGI,HT29 colon,> 100 µM
same,GI50,IGROV1 ovarian,18.5 µM
same,TGI,IGROV1 ovarian,53.2 µM
same,GI50,K-562 leukemia,45 µM
same,TGI,K-562 leukemia,> 100 µM
same,GI50,KM12 colon,> 100 µM
same,TGI,KM12 colon,> 100 µM
same,GI50,LOX IMVI melanoma,94.8 µM
same,TGI,LOX IMVI melanoma,> 100 µM
same,GI50,M14 melanoma,> 100 µM
same,TGI,M14 melanoma,> 100 µM
same,GI50,MALME-3M melanoma,> 100 µM
same,TGI,MALME-3M melanoma,> 100 µM
same,GI50,MCF7 breast,59.3 µM
same,TGI,MCF7 breast,> 100 µM
same,GI50,MDA-MB-231 breast,54.9 µM
same,TGI,MDA-MB-231 breast,> 100 µM
same,GI50,MDA-MB-435,> 100 µM
same,TGI,MDA-MB-435,> 100 µM
same,GI50,MOLT-4 leukemia,49.8 µM
same,TGI,MOLT-4 leukemia,> 100 µM
same,GI50,NCI-H226 lung,34.6 µM
same,TGI,NCI-H226 lung,> 100 µM
same,GI50,NCI-H23 lung,49.4 µM
same,TGI,NCI-H23 lung,> 100 µM
same,GI50,NCI-H460 lung,97.3 µM
same,TGI,NCI-H460 lung,> 100 µM
same,GI50,NCI-H522 lung,> 100 µM
same,TGI,NCI-H522 lung,> 100 µM
same,GI50,NCI/ADR-RES ovarian,34.8 µM
same,TGI,NCI/ADR-RES ovarian,> 100 µM
same,GI50,OVCAR-3 ovarian,> 100 µM
same,TGI,OVCAR-3 ovarian,> 100 µM
same,GI50,OVCAR-4 ovarian,17.6 µM
same,TGI,OVCAR-4 ovarian,38.6 µM
same,GI50,OVCAR-5 ovarian,> 100 µM
same,TGI,OVCAR-5 ovarian,> 100 µM
same,GI50,OVCAR-8 ovarian,45.3 µM
same,TGI,OVCAR-8 ovarian,> 100 µM
same,GI50,PC-3 prostate,11 µM
same,TGI,PC-3 prostate,23 µM
same,GI50,RPMI-8226 leukemia,21.7 µM
same,TGI,RPMI-8226 leukemia,53.6 µM
same,GI50,RXF 393 renal,32 µM
same,TGI,RXF 393 renal,99.3 µM
same,GI50,SF-268 CNS,39.3 µM
same,TGI,SF-268 CNS,> 100 µM
same,GI50,SF-295 CNS,71.4 µM
same,TGI,SF-295 CNS,> 100 µM
same,GI50,SF-539 CNS,68.8 µM
same,TGI,SF-539 CNS,> 100 µM
same,GI50,SK-MEL-2 melanoma,60.9 µM
same,TGI,SK-MEL-2 melanoma,> 100 µM
same,GI50,SK-MEL-28 melanoma,> 100 µM
same,TGI,SK-MEL-28 melanoma,> 100 µM
same,GI50,SK-MEL-5 melanoma,68.3 µM
same,TGI,SK-MEL-5 melanoma,> 100 µM
same,GI50,SK-OV-3 ovarian,33.7 µM
same,TGI,SK-OV-3 ovarian,> 100 µM
same,GI50,SN12C renal,> 100 µM
same,TGI,SN12C renal,> 100 µM
same,GI50,SNB-19 CNS,25.5 µM
same,TGI,SNB-19 CNS,80.1 µM
same,GI50,SNB-75 CNS,13.9 µM
same,TGI,SNB-75 CNS,32.2 µM
same,GI50,SW-620 colon,96.7 µM
same,TGI,SW-620 colon,> 100 µM
same,GI50,T-47D breast,20.7 µM
same,TGI,T-47D breast,87.4 µM
same,GI50,TK-10 renal,> 100 µM
same,TGI,TK-10 renal,> 100 µM
same,GI50,U251 CNS,20.7 µM
same,TGI,U251 CNS,45.7 µM
same,GI50,UACC-257 melanoma,> 100 µM
same,TGI,UACC-257 melanoma,> 100 µM
same,GI50,UACC-62 melanoma,50.2 µM
same,TGI,UACC-62 melanoma,> 100 µM
same,GI50,UO-31 renal,76.2 µM
same,TGI,UO-31 renal,> 100 µM
